US20080220416A1, “Compositions for Inhibiting Cell Growth and Inducing Apoptosis in Cancer Cells and Methods of Use Thereof” (THE BOARD OF TRUSTEES OF THE UNIVERSITY OF ILLINOI, priority 2004, published 2008)
Read-outs that look alike come from different tables or passages of the source.

How the values were obtained:
[1] = system: SK-MeI-28 melanoma cells; assay: Dosing study versus chemotherapeutic agents, killing of SK-MeI-28 melanoma cells; type: cell-based, human; settings: SK-MeI-28, mutated p53
Protocol: (§1) An initial dosing study comparing z-Leu-Leu-Nle-CHO against three different chemotherapeutic agents (i.e., adriamycin, etoposide, and cisplatin) was performed to evaluate the relative effectiveness of z-Leu-Leu-Nle-CHO in killing melanoma cells. In agreement with a previous report by Soengas, M. S. et al., 2001, Nature 409.207-211, SK-MeI-28 cells, carrying a mutated p53, were relatively resistant to killing by adriamycin, as well as to killing by other chemotherapeutic agents. For SK-MeI-28 melanoma cells, the maximal apoptotic response for adriamycin, etoposide, cisplatin, and z-Leu-Leu-Nle-CHO was 12.0%, 2.6%, 4.0%, and 29.4%, respectively. For RJ002L melanoma cells, the maximal apoptotic response for adriamycin, etoposide, cisplatin, and z-Leu-Leu-Nle-CHO was 23.9%, 12.7%, 3.4%, and 45.7%, respectively.

[2] = system: RJ002L melanoma cells; assay: Dosing study versus chemotherapeutic agents, killing of RJ002L melanoma cells; type: cell-based, human
Protocol: as §1

[3] = system: NOXA; assay: Western blot of pro-survival and pro-apoptotic proteins in melanoma cells; type: cell-based, human; settings: several melanoma cell lines, similar time points; data not shown
Protocol: To assess the effect of z-Leu-Leu-Nle-CHO on pro-apoptotic proteins, RJ002L pulmonary metastases melanoma cells were grown in RPMI supplemented with 10% FBS. Highly proliferating cells (i.e., cells that had reached approximately 30% confluency) were exposed to z-Leu-Leu-Nle-CHO by replenishing the culture media with media containing z-Leu-Leu-Nle-CHO (10 μM) (experimental group) or media without z-Leu-Leu-Nle-CHO (control group) and the cells were incubated for a specified period of time prior to harvesting the cells for further analysis.
Western blot analyses following z-Leu-Leu-Nle-CHO and control treatment of RJ002L melanoma cells were performed to determine the effect of z-Leu-Leu-Nle-CHO on pro-survival and pro-apoptotic proteins. Whole cell extracts were prepared and analyzed as described by Denning, M. F. et al., 1998, J Biol Chem 273: 29995-30002, 1998. The enriched mitochondria pellet and mitochondria-free cytosol of melanoma cells were prepared with the APO ALERT cell fraction kit (Clontech Laboratories, Inc. Palo Alto, Calif.) according to the manufacturer's instructions. For Western blot analysis, equal amounts of protein extracted from each sample (20-30 μg) were loaded into pre-cast 7% NuPAGE Tris-acetate gels or 4-12% NuPAGE Bis-tris gels (Invitrogen). Proteins were separated by SDS-PAGE and transferred to polyvinylidene difluoride membranes (Bio-Rad, Hercules, Calif.) using Invitrogen's buffering system. The indicated primary antibodies were incubated for indicated period of time, washed, and visualized by incubation with horseradish peroxidase-conjugated secondary antibodies and chemiluminescent reagents (Roche Diagnostics Corporation, Indianapolis, Ind.). Antibodies used were as follows: From Santa Cruz Biotechnology: Bcl-2 (SC-7382), BCl-xL (SC-634), Mcl-1 (SC-819), survivin (SC-10811), Bax (SC-493), Bak (SC-832), Bim (SC-11425), PUMA (SC-19187), p53 (SC-126), and GADD45 (SC-796); From Cell Signaling: Bid (#2002), and cleaved caspase 9 (9501); NOXA (OP180—Oncogene Research Products), Apaf-1 (559683-BD Bioscience), Smac/Diablo (IMG-248-Imgenex), cytochrome C (part of kit—Apo Alert™ cell fraction kit—Clontech Laboratories, Inc.—Palo Alto, Calif.), PARP (Pharmingen, San Diego, Calif.) and β-actin (Sigma Chemical Co., St. Louis, Mo.). Secondary antibodies anti-goat, anti-mouse, anti-rabbit and anti-rat (IgG-HRP) were purchased from Vector Laboratories (Burlingame, Calif.), Santa Cruz Biotechnology and Amersham Biosciences.
To determine if p53 status influences induction of NOXA, NOXA induction in z-Leu-Leu-Nle-CHO-treated melanoma cell lines (10 μM) containing p53 mutations (i.e. C8161, SK-MeI-28, MUM2B) were examined using Western blot analysis as described above and compared to that of Western blot results from z-Leu-Leu-Nle-CHO-treated melanoma cell lines (10 μM) having wild-type p53 (RJ002L, SK-MeI-100). […] In contrast, C8161, which carries a R196Stop mutation in only one allele, has p53 expression similar to that observed in wild-type cell lines. […] NOXA induction occurred earlier in SK-MeI-100 cells than in the other tested cell lines (FIG. 2C). Apaf-1 levels were not increased in response to z-Leu-Leu-Nle-CHO (data not shown).

[4] = system: CaSki human cervical cancer cells; assay: Cell growth inhibition assay in CaSki cervical cancer cells (crystal violet); type: cell-based; settings: 48 hrs, read-out: IC50 of cisplatin
Protocol: The cell growth inhibition assay was performed in a 96-well plate format. Inhibition was assessed by monitoring the protein content in each well using the crystal violet staining method as described by Skehan et al., 1990, J Natl Cancer Inst 82:1107-1112 and Prochaska et al., 1988, Anal Biochem 169:328-336. Briefly, cells were plated at a density of 2×10^4 cells/ml in 200 μl of DMEM supplemented with 10% FBS. The cells were transfected with siRNAs ([…] siRNA oligos/well) using Oligofectamine Transfection Reagents (InVitrogen) according to manufacturer's instructions. Twenty-four hours post-transfection, the media was decanted, 190 μl of fresh media was added to each well, and 10 μl of cisplatin (4 mM) dissolved in 10% DMSO was added to the wells as a series 2-fold dilutions (final concentration of cisplatin in the wells ranged from 0.5-200 μM). The cells were incubated with cisplatin for 48 hrs, the media was decanted, and the cells were submerged with 200 μl of 0.2% crystal violet in 2% ethanol for 10 min. The plates were rinsed for 2 min with tap water. The bound dye was solublized by incubation at 37° C. for 1 h with 200 μl of 0.5% sodium dedecyl sulfate in 50% ethanol. The plates were then scanned with an ELISA reader at 562 nm. The percentage cell growth inhibition mediated by cisplatin was calculated as: % inhibition=[1-(OD of cisplatin-treated cells/OD DMSO-treated control cells)]×100/100.
CaSki human cervical cancer cells treated for 48 hrs with z-Leu-Leu-Nle-CHO alone were tested for cell growth inhibition. The cell growth inhibition assay was performed in a 96-well plate format. Inhibition was assessed by monitoring the protein content in each well using the crystal violet staining method Skehan, P. et al., 1990, J Natl Cancer Inst 82:1107-1112. Briefly, cells were plated at a density of 2×10^4 cells/ml in 200 μl of DMEM supplemented with 10% FBS. After pre-incubation period of 24 h, the media was decanted, 190 μl of fresh media was added to each well, and 10 μl (150 μM) of z-Leu-Leu-Nle-CHO dissolved in 10% DMSO was added to the wells as a series 2-fold dilutions (final concentration of cisplatin in the wells ranged from 0.05-7.5 μM). The cells were incubated with z-Leu-Leu-Nle-CHO for 48 hrs, the media was decanted, and the cells were submerged with 200 μl of 0.2% crystal violet in 2% ethanol for 10 min. The plates were rinsed for 2 min with tap water. The bound dye was solublized by incubation at 37° C. for 1 h with 200 μl of 0.5% sodium dedecyl sulfate in 50% ethanol. The plates were then scanned with an ELISA reader at 562 nm. The percentage cell growth inhibition mediated by test agents was calculated as: % inhibition=[1-(OD of z-Leu-Leu-Nle-CHO-treated cells/OD DMSO-treated control cells)]×100/100.
To determine whether z-Leu-Leu-Nle-CHO treatment potentiates the effect of cisplatin on human […] cancer cells, the CaSki cells were treated for 48 h with 0.1-0.8 μM z-Leu-Leu-Nle-CHO and various concentrations of cisplatin (2-fold dilutions of a cisplatin solution to produce final concentrations of 1.6-200 μM cisplatin). Following the z-Leu-Leu-Nle-CHO and cisplatin treatment, the cells were tested for growth inhibition as described above.
Isobologram analysis was performed by measuring the IC50 values of cisplatin in the presence of various concentrations of z-Leu-Leu-Nle-CHO. These IC50 values were plotted with SigmaPlot, and a straight line was traced between the IC50 values of cells treated with either cisplatin or z-Leu-Leu-Nle-CHO alone.

SMILES	maximal apoptotic response [1] [%]	maximal apoptotic response [2] [%]	NOXA induction by DNA damaging agents [3]	IC50 ([4]; in combination with Notch-1 siRNA) [µM]	IC50 ([4]; without Notch-1 siRNA) [µM]
COc1cccc2c1C(=O)c1c(O)c3c(c(O)c1C2=O)C[C@@](O)(C(=O)CO)C[C@@H]3O[C@H]1C[C@H](N)[C@H](O)[C@H](C)O1 [adriamycin]	12.0	23.9	did not induce NOXA		
COc1cc([C@@H]2c3cc4c(cc3[C@@H](O[C@@H]3O[C@@H]5CO[C@@H](C)O[C@H]5[C@H](O)[C@H]3O)[C@H]3COC(=O)[C@H]23)OCO4)cc(OC)c1O [etoposide]	2.6	12.7	did not induce NOXA		
N.N.[Cl][Pt][Cl] [cisplatin]	4.0	3.4	did not induce NOXA	0.46	27.3
